Drawing on paper PMC7065771, “Dietary supplementation of recombinant antimicrobial peptide Epinephelus lanceolatus piscidin improves growth performance and immune response in Gallus gallus domesticus” (PLoS ONE, 2020), this text covers zone of inhibition and MIC for 4 compounds.

Test [1] concerns Escherichia coli (BCRC 10675). Nature of the test: Inhibition zone (disk diffusion) assay. Type of test: cell-based. Particulars: Escherichia coli, BCRC10675; disk paper on culture plate 16 h at 37°C; rEP: shake-flask supernatant 120 h after induction, maximum carrying capacity; ampicillin 2 mg/ml, 10 μl; read-out: Inhibition zone diameter. How it is done: (§1) All assays were performed in triplicate.
(§2) The antimicrobial activity of rEP from flask cultures was evaluated by determining its ability to prevent growth of Gram-positive and Gram-negative bacteria with a disk diffusion assay. […] The most susceptible pathogens were R. anatipestifer (CFC27) and R. anatipestifer (CFC437) (Table 3a). Next, we investigated the thermostability of flask-fermented rEP with regard to its toxicity toward S. aureus (BCRC 10780), E. coli (BCRC 10675) and P. aeruginosa (ATCC 19660). Empty vector with no insert in P. pastoris was used as a control. Thermostability was measured by disk diffusion assay after cultures were incubated for 5 min at 40, 60, 80, or 100°C (Table 3b).

Test [2] deals with Pseudomonas aeruginosa (ATCC 19660). Kind of test: Inhibition zone (disk diffusion) assay. Format: cell-based. The following applies: Pseudomonas aeruginosa, ATCC19660; disk paper on culture plate 16 h at 37°C; rEP: shake-flask supernatant 120 h after induction, maximum carrying capacity; ampicillin 2 mg/ml, 10 μl; read-out: Inhibition zone diameter. How it is done: as §1, §2
(In agar diffusion tests the substance spreads into inoculated agar from a disc or well.)

Test [3] relates to Riemerella anatipestifer (CFC27). Nature of the test: Inhibition zone (disk diffusion) assay. Type of test: cell-based. The following applies: Riemerella anatipestifer; disk paper 16 h at 37°C; ampicillin 2 mg/ml, 10 μl; read-out: Inhibition zone diameter. How it is done: as §1, §2
For test [4], the system named is Riemerella anatipestifer (CFC363). Nature of the test: Inhibition zone (disk diffusion) assay. The following applies: disk paper on culture plate 16 h at 37°C, rEP: shake-flask supernatant 120 h after induction, maximum carrying capacity, ampicillin 2 mg/ml, 10 μl, read-out: Inhibition zone diameter. Type of test: cell-based. How it is done:
as §1, §2

In test [5] the test system is Riemerella anatipestifer (CFC437). Nature of the test: Inhibition zone (disk diffusion) assay. Format: cell-based. Particulars: Riemerella anatipestifer; disk paper 16 h at 37°C; ampicillin 2 mg/ml, 10 μl; read-out: Inhibition zone diameter. How it is done:
as §1, §2

In test [6] the test system is Riemerella anatipestifer (RA16). Nature of the test: Inhibition zone (disk diffusion) assay. Format: cell-based. Particulars: disk paper on culture plate 16 h at 37°C, rEP: shake-flask supernatant 120 h after induction, maximum carrying capacity, ampicillin 2 mg/ml, 10 μl, read-out: Inhibition zone diameter. How it is done:
as §1, §2

Test [7] deals with Riemerella anatipestifer (RA3). Nature of the test: Inhibition zone (disk diffusion) assay. Type of test: cell-based. The following applies: Riemerella anatipestifer; disk paper 16 h at 37°C; ampicillin 2 mg/ml, 10 μl; read-out: Inhibition zone diameter. How it is done:
as §1, §2

Test [8] deals with Riemerella anatipestifer (RA9). Nature of the test: Inhibition zone (disk diffusion) assay. Type of test: cell-based. The following applies: disk paper on culture plate 16 h at 37°C, rEP: shake-flask supernatant 120 h after induction, maximum carrying capacity, ampicillin 2 mg/ml, 10 μl, read-out: Inhibition zone diameter. How it is done: as §1, §2
The test system of test [9] is Staphylococcus aureus (BCRC 10780). Nature of the test: Inhibition zone (disk diffusion) assay. Format: cell-based. Particulars: Staphylococcus aureus, BCRC10780; disk paper on culture plate 16 h at 37°C; rEP: shake-flask supernatant 120 h after induction, maximum carrying capacity; ampicillin 2 mg/ml, 10 μl; read-out: Inhibition zone diameter. How it is done:
as §1, §2

A further test concerns MRSA. Format: cell-based, Methicillin-resistant Staphylococcus aureus. The following applies: 24 h. How it is done:
as §1

In the next test the test system is Escherichia coli. Format: cell-based. The following applies: 24 h. How it is done:
as §1

Another test deals with Klebsiella oxytoca. Format: cell-based. Particulars: 24 h. How it is done:
as §1

Test [10] has as its system Staphylococcus aureus subsp. Format: cell-based. The following applies: 24 h. How it is done:
as §1

Another test has as its system Streptococcus agalactiae. Type of test: cell-based. The following applies: 24 h. How it is done:
as §1

For another test, the system named is Streptococcus equinus. Format: cell-based. The following applies: 24 h. How it is done: as §1
A further test deals with Vibrio parahaemolyticus. The following applies: synthetic peptide, microbroth dilution series, Gram -.
For another test, the system named is Pseudomonas aeruginosa. Type of test: cell-based. The following applies: 24 h. How it is done: as §1

Consider `CC1(C)S[C@@H]2[C@H](NC(=O)[C@H](N)c3ccccc3)C(=O)N2[C@H]1C(=O)O` [Ampicillin, reference compound], for which the zone of inhibition at 2000 µg/mL turned out to be 13.6 ± 0.5 mm in [1]; 11.6 ± 0.5 mm in test [2]; 43 ± 1.1 mm in [3]; 32 ± 2.3 mm in test [4]; 15 ± 4.5 mm in test [5]; 30 ± 1.2 mm in [6]. Moreover, the zone of inhibition at 2000 µg/mL in test [7] turned out to be 12 ± 2.5 mm; in test [8], 31 ± 0.8 mm; in [9] it was 14.6 ± 0.5 mm.
In the case of “Ac-CFFRHIKSFWRGAKAIFRGARQGWRE-NH2 [G6497-t1]”, the MIC (as a rule, the least concentration at which growth counts as inhibited) worked out at 60 µg/mL in the test on MRSA; 30 µg/mL against Escherichia coli; 30 µg/mL against Klebsiella oxytoca; 60 µg/mL in [10]; 60 µg/mL with Streptococcus agalactiae; 15 µg/mL against Streptococcus equinus. The compound further returned an MIC with Vibrio parahaemolyticus of 60 µg/mL.
Turning to “Ac-CIMKHLRNLWNGAKAIYNGAKAGWTEFK-NH2 [G6496-t1]”, the minimum inhibitory concentration (MIC) in the test with Escherichia coli was determined as 60 µg/mL; in the test on Klebsiella oxytoca it was 60 µg/mL; in test [10], 60 µg/mL; against Streptococcus agalactiae it was 60 µg/mL; in the test on Streptococcus equinus, 30 µg/mL.
For “Ac-GFIFHIIKGLFHAGRMIHGLVNRRRHRHGMEE-NH2 [G6498-t1]”, the MIC with MRSA worked out at 5.6 µg/mL; against Escherichia coli, 22.5 µg/mL; in the test on Klebsiella oxytoca, 45 µg/mL; in the test on Pseudomonas aeruginosa it was 45 µg/mL; in test [10], 90 µg/mL; in the test with Streptococcus agalactiae, 90 µg/mL. The MIC in the test with Streptococcus equinus was 11.2 µg/mL; against Vibrio parahaemolyticus, 5.6 µg/mL.
